Assays:
human S1P5 receptor = human S1P5 receptor (Homo sapiens (Human), UniProt Q9H228); assay: In vitro functional activity (agonism) on human S1P5 receptors, CHO-human-S1P5-Aequorin assay; type: cell-based; settings: aequorin luminescence; for EC50: read-out: S1P5 pEC50 (converted)
Protocol: In Vitro Functional Activity (Agonism) on Human 51P5 Receptors
The CHO-human-S1P5-Aeqorin assay was bought from Euroscreen, Brussels (Euroscreen, Technical dossier, Human Lysophospholid S1P5 (Edg8) receptor, DNA clone and CHO AequoScreen™ recombinant cell-line, catalog n°: ES-593-A, September 2006). Human-S1P5-Aequorin cells express mitochondrial targeted apo-Aequorin. […] This luminescent response is dependent on the agonist concentration. Luminescence is measured using the MicroBeta Jet (Perkin Elmer). Agonistic effects of compounds are expressed as pEC50.

human S1P3 receptor = human S1P3 receptor (Homo sapiens (Human), UniProt Q99500); assay: In vitro functional activity (agonism) on human S1P3 receptors, CHO-human-S1P3-Aequorin assay; type: cell-based; settings: aequorin luminescence; for EC50: read-out: S1P3 pEC50 (converted)
Chain of human S1P3 receptor (Q99500 whole entry): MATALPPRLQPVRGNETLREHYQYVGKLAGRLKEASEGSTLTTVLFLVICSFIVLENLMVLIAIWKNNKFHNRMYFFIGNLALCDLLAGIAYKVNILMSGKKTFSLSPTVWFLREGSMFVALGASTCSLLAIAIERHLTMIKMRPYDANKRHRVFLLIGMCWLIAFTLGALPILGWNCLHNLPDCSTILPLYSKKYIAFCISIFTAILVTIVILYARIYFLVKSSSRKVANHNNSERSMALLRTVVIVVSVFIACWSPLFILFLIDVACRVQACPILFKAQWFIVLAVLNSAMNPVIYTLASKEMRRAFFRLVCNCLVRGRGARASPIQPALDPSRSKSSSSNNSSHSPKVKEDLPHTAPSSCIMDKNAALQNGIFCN
Protocol: In Vitro Functional Activity (Agonism) on Human S1P3 Receptors
The CHO-human-S1P3-Aeqorin assay (CHO/Gα16/AEQ/h-S1P3) was established at Solvay Pharmaceuticals. […] This luminescent response is dependent on the agonist concentration. Luminescence is measured using the MicroBeta Jet (Perkin Elmer). Agonistic effects of compounds are expressed as pEC50.

human S1P1 receptor [1] = target: T1, human S1P1 receptor (Homo sapiens (Human), UniProt P21453); assay: In vitro functional activity (agonism) on human S1P1 receptors (method B), CHO-K1-human S1P1 cAMP assay; type: cell-based; settings: determined using method B (cAMP, forskolin); for EC50: read-out: S1P1^B pEC50 (converted)
T1 sequence (P21453 whole entry): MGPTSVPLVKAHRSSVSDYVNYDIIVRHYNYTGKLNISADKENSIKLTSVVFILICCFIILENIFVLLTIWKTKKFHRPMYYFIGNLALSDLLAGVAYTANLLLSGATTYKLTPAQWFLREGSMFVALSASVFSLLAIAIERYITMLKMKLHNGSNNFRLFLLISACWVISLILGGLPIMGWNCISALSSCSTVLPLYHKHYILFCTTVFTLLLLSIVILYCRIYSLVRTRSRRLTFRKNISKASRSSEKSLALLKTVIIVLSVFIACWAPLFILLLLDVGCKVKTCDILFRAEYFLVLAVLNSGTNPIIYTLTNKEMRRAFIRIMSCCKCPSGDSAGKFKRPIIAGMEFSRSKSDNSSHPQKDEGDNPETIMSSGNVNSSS
Protocol: The CHO-K1-Human S1P1-c-AMP assay was performed at Euroscreenfast, Brussels (Euroscreen, Human S1P1 coupling Gi/0, (Edg1) receptor, catalog no: FAST-0197C, December 2009).
Recombinant CHO-K1 cells expressing human S1P1, grown to mid-log Phase in culture media without antibiotics, detached, centrifuged and re-suspended. For agonist testing cells are mixed with compound and Forskolin and incubated at room temperature. Cells are lyses and cAMP concentration are estimated, according to the manufacturer specification, With the HTRF kit from CIS-BIO International (cat n°62AM2PEB).
Agonistic effects of compounds are expressed as a percentage of the activity of the reference compound at its EC100 concentration, EC50 is calculated and results are reported as pEC50.

human S1P1 receptor [2] = target: T1, human S1P1 receptor; settings: agonism, determined using method A (aequorin)
Text: In Vitro Functional Activity (Agonism) on Human S1P1 Receptors (Method A)
The CHO-K1-human-S1P1-Acqorin assay was bought from Euroscreen Fast, Brussels (Euroscreen, Technical dossier, Human S1P1 (Edg1) receptor, DNA clone and CHO-K1 AequoScreen™ recombinant cell-line, catalog n°: FAST-0197 L, February 2010). Human-S1P1-Aequorin cells express mitochondrial targeted apo-Aequorin. Cells have to be loaded with coelanterazine, in order to reconstitute active Aequorin. After binding of agonists to the human S1P1 receptor the intracellular calcium concentration increases and binding of calcium to the apo-Aequorin/coelenterazine complex leads to an oxidation reaction of coelenterazine, which results in the production of apo-Aequorin, coelenteramide, CO2 and light ([…]max 469 nm). This luminescent response is dependent on the agonist concentration. Luminescence is measured using the MicroBeta Jet (Perkin Elmer). Agonistic effects of compounds are expressed as pEC50. Compounds were tested at a 10 points half log concentration range, and 2 independent experiments were performed in single point's measurements.

Chain of human S1P5 receptor (Q9H228 whole entry): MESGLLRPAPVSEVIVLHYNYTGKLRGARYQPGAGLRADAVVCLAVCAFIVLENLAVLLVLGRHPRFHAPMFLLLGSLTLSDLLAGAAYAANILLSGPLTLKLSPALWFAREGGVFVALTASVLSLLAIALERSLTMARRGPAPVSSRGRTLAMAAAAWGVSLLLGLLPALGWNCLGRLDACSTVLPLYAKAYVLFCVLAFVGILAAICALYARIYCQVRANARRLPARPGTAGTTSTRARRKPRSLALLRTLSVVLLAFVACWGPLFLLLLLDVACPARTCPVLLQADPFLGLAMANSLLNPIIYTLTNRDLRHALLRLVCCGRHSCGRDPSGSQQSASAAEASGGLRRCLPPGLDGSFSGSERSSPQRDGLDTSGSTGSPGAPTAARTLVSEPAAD

EC50 (human S1P5 receptor) [nM] | EC50 (human S1P3 receptor) [nM] | EC50 (human S1P1 receptor [1]) [nM] | SMILES | S1P5 pEC50 (human S1P5 receptor) | S1P3 pEC50 (human S1P3 receptor) | S1P1^B pEC50 (human S1P1 receptor [1]) | S1P1^A pEC50 (human S1P1 receptor [2])
– | – | – | CC(CN1CCc2oc(-c3ccc(OCc4ccc(Cl)cc4)cc3)nc2C1)C(=O)O (stereo not drawn) [Compound 157, 3-{2-[4-(4-Chloro-benzyloxy)-phenyl]-6,7-dihydro-H-oxazolo[4,5-c]pyridine-5-yl}-2-methyl-propionic acid] | 8.1 | 5.3 | 6.2 | –
– | – | – | O=C(O)C1CC(N2CCc3oc(-c4ccc(OCc5ccc(OC(F)(F)F)cc5)cc4)nc3C2)C1 (stereo not drawn) [Compound 307, 3-{2-[4-(4-Trifluoromethoxybenzyloxy)-phenyl]-6,7-dihydro-H-oxazolo[4,5-c]pyridine-5-yl}-cyclobutane carboxylic acid] | 7.3 | <5.0 | – | <5
– | – | – | O=C(O)CCCN1CCc2oc(-c3ccc(OCc4ccc(C(F)(F)F)cc4)cc3F)nc2C1 [Compound 85, 4-{2-[4-(4-Trifluoromethyl-benzyloxy)-2-fluoro-phenyl]-6,7-dihydro-H-oxazolo[4,5-c]pyridine-5-yl}-butyric acid] | 8.6 | 6.3 | <5.5 | –
– | – | – | O=C(O)CCCN1CCc2oc(-c3ccc(OCc4ccccc4F)c(Cl)c3)nc2C1 [Compound 283, 4-{2-[4-(2-Fluoro-benzyloxy)-3-chloro-phenyl]-6,7-dihydro-H-oxazolo[4,5-c]pyridine-5-yl}-butyric acid] | 7.7 | <5 | – | <4.5
– | – | – | O=C(O)CCCN1CCc2oc(-c3ccc(OCc4ccc(Cl)cc4)c(F)c3)nc2C1 [Compound 211, 4-{2-[4-(4-Chloro-benzyloxy)-3-fluoro-phenyl]-6,7-dihydro-H-oxazolo[4,5-c]pyridine-5-yl}-butyric acid] | 8.3 | <5.0 | 6.1 | –
7.94 | > 10000 | 251 | CC(CC(=O)O)N1CCc2oc(-c3ccc(OCc4ccccc4)cc3)cc2C1 (stereo not drawn) [Compound 76, 3-{2-[4-Benzyloxy-phenyl]-6,7-dihydro-4H-furo[3,2-c]pyridine-5-yl}-butyric acid] | – | – | – | –
– | – | – | O=C(O)CCCN1CCc2oc(-c3ccc(OCc4ccc(Cl)c(Cl)c4)cc3F)nc2C1 [Compound 227, 4-{2-[4-(3,4-Dichloro-benzyloxy)-2-fluoro-phenyl]-6,7-dihydro-H-oxazolo[4,5-c]pyridine-5-yl}-butyric acid] | 8.5 | <6.0 | 6.0 | –
– | – | – | O=C(O)CCCN1CCc2oc(-c3ccc(OCc4cccc(F)c4F)cc3)nc2C1 [Compound 57] | 8.0 | <5 | <5.5 | –
– | – | – | O=C(O)C1CC(N2CCc3oc(-c4ccc(OCc5ccc(F)c(F)c5)cc4)nc3C2)C1 (stereo not drawn) [Compound 278, 3-{2-[4-(3,4-Difluorobenzyloxy)-phenyl]-6,7-dihydro-H-oxazolo[4,5-c]pyridine-5-yl}-cyclobutane carboxylic acid] | 7.4 | <5 | – | <5
– | – | – | O=C(O)C1CC(N2CCc3oc(-c4ccc(OCc5ccc(OC(F)(F)F)cc5)cc4)nc3C2)C1 (stereo not drawn) [Compound 306, 3-{2-[4-(4-Trifluoromethoxybenzyloxy)-phenyl]-6,7-dihydro-H-oxazolo[4,5-c]pyridine-5-yl}-cyclobutane carboxylic acid] | 8.1 | <5.0 | – | <5
15.8 | 3160 | 100 | O=C(O)CCN1CCc2oc(-c3ccc(OCc4ccccc4F)cc3)cc2C1 [Compound 33, 3-{2-[4-(2-Fluoro-benzyloxy)-phenyl]-6,7-dihydro-4H-furo[3,2-c]pyridine-5-yl}-propionic acid] | – | – | – | –
– | – | – | O=C(O)CCCN1CCc2oc(-c3ccc(OCc4ccccc4F)cc3F)cc2C1 [Compound 73, 4-{2-[4-(2-Fluoro-benzyloxy)-2-fluoro-phenyl]-6,7-dihydro-4H-furo[3,2-c]-pyri-dine-5-yl}-butyric acid] | 8.2 | 6.3 | 8.0 | –
– | – | – | CC(CN1CCc2oc(-c3ccc(OCc4ccc(C(F)(F)F)cc4)cc3F)nc2C1)C(=O)O (stereo not drawn) [Compound 271, 3-{2-[4-(4-Trifluoromethyl-benzyloxy)-2-fluoro-phenyl]-6,7-dihydro-H-oxazolo[4,5-c]pyridine-5-yl}-2-methyl-propionic acid] | 8.0 | 5.4 | 6.2 | –
– | – | – | CC(CN1CCc2oc(-c3ccc(OCc4ccc(C(F)(F)F)cc4)cc3)nc2C1)C(=O)O (stereo not drawn) [Compound 156, 3-{2-[4-(4-Trifluoromethyl-benzyloxy)-phenyl]-6,7-dihydro-H-oxazolo[4,5-c]pyridine-5-yl}-2-methyl-propionic acid] | 8.4 | 5.5 | 6.2 | –
– | – | – | O=C(O)CCN1CCc2oc(-c3ccc(OCc4ccccc4)cc3)nc2C1 [Compound 47] | 8.0 | <5 | <5.5 | –
– | – | – | CC(CN1CCc2oc(-c3ccc(OCc4ccccc4)cc3)nc2C1)C(=O)O (stereo not drawn) [Compound 146, 3-[2-(4-Benzyloxy-phenyl)-6,7-dihydro-H-oxazolo[4,5-c]pyridine-5-yl]-2-methyl-propionic acid] | 7.8 | <5.0 | <5.5 | –
– | – | – | Cc1cc(OCc2ccccc2F)ccc1-c1nc2c(o1)CCN(CCCC(=O)O)C2 [Compound 89, 4-{2-[4-(2-Fluoro-benzyloxy)-2-methyl-phenyl]-6,7-dihydro-H-oxazolo[4,5-c]pyridine-5-yl}-butyric acid] | 8.2 | <5.0 | 5.9 | –
– | – | – | O=C(O)C1CC(N2CCc3oc(-c4ccc(OCc5ccc(F)c(F)c5)cc4)nc3C2)C1 (stereo not drawn) [Compound 277, 3-{2-[4-(3,4-Difluorobenzyloxy)-phenyl]-6,7-dihydro-H-oxazolo[4,5-c]pyridine-5-yl}-cyclobutane carboxylic acid] | 8.5 | <5.0 | – | 5.2
– | – | – | O=C(O)CCCN1CCc2oc(-c3ccc(OCc4ccccc4)cc3)nc2C1 [Compound 53, 4-{2-[4-Benzyloxy-phenyl]-6,7-dihydro-H-oxazolo[4,5-c]pyridine-5-yl}-butyric acid] | 7.9 | <5 | – | <4.5
3.98 | 794 | 31.6 | CC(CN1CCc2oc(-c3ccc(OCc4ccc(Cl)cc4)cc3)cc2C1)C(=O)O (stereo not drawn) [Compound 77, 3-{2-[4-(4-Chloro-benzyloxy)-phenyl]-6,7-dihydro-4H-furo[3,2-c]pyridine-5-yl}-2-methyl-propionic acid] | – | – | – | –
5.01 | 5010 | 251 | O=C(O)CCCN1CCc2oc(-c3ccc(OCc4ccccc4F)cc3)cc2C1 [Compound 35, 4-{2-[4-(2-Fluoro-benzyloxy)-phenyl]-6,7-dihydro-4H-furo[3,2-c]pyridine-5-yl}-butyric acid] | – | – | – | –
– | – | – | CC(CC(=O)O)N1CCc2oc(-c3ccc(OCc4cccc(F)c4F)cc3)nc2C1 (stereo not drawn) [Compound 175] | 8.3 | 5.8 | <5.5 | –

Source: patent US9670220B2, “Fused heterocyclic derivatives as S1P modulators” (Abbvie B.V., priority 2010, dated 2017)
